Holding throughout (assay): relative viability (nuclei count vs DMSO), 5 days (fraction); higher = more cells survive
Compound in assay [1]: COc1cc(-c2nn([C@H]3CC[C@H](N4CCN(C(C)=O)CC4)CC3)c3ncnc(N)c23)ccc1NC(=O)c1cc2ccccc2n1C + Cc1nc(NC(=O)N2CCC[C@H]2C(N)=O)sc1-c1ccnc(C(C)(C)C(F)(F)F)c1 [Alpelisib] (partner 2 µM)
An outline of the steps: (§1)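 After 5 days of treatment, lung cancer cells in 1536-well plates were fixed and stained in a single step (final 0.05% Triton X-100, 1% formaldehyde, 1 ug/ml Hoechst) and their nuclei counted on 4× images. Treatment had been applied by pin tool the day after seeding as one drug alone or as a fixed anchor-drug dose with five library-drug doses (not always all listed) in √10 steps. Relative viability is the nuclei count of treated wells divided by that of vehicle wells, and values are medians of duplicate plates.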

Compound in the assay “Midostaurin + OSI-027”: CO[C@@H]1[C@H](N(C)C(=O)c2ccccc2)C[C@H]2O[C@]1(C)n1c3ccccc3c3c4c(c5c6ccccc6n2c5c31)C(=O)NC4 [Midostaurin] + COc1cccc2cc(-c3nc([C@H]4CC[C@H](C(=O)O)CC4)n4ncnc(N)c34)[nH]c12 [OSI-027] (partner 0.5 µM)
The gist of the method:
as §1

Compound in the assay “Midostaurin + Tozasertib”: CO[C@@H]1[C@H](N(C)C(=O)c2ccccc2)C[C@H]2O[C@]1(C)n1c3ccccc3c3c4c(c5c6ccccc6n2c5c31)C(=O)NC4 [Midostaurin] + Cc1cc(Nc2cc(N3CCN(C)CC3)nc(Sc3ccc(NC(=O)C4CC4)cc3)n2)n[nH]1 [Tozasertib] (partner 0.1 µM)
An outline of the steps: as §1

Compound in the assay “Midostaurin + AZD7762”: CO[C@@H]1[C@H](N(C)C(=O)c2ccccc2)C[C@H]2O[C@]1(C)n1c3ccccc3c3c4c(c5c6ccccc6n2c5c31)C(=O)NC4 [Midostaurin] + NC(=O)Nc1cc(-c2cccc(F)c2)sc1C(=O)N[C@H]1CCCNC1 [AZD7762] (partner 0.2 µM)
An outline of the steps:
as §1

Compound in assay [2]: COc1cc(-c2nn([C@H]3CC[C@H](N4CCN(C(C)=O)CC4)CC3)c3ncnc(N)c23)ccc1NC(=O)c1cc2ccccc2n1C + CCNC(=O)c1noc(-c2cc(C(C)C)c(O)cc2O)c1-c1ccc(CN2CCOCC2)cc1 [Luminespib] (partner 0.01 µM)
The gist of the method:
as §1

As for NCI-H2170, the relative viability in assay [1] (first compound 0.0128 µM) turned out to be 0.891; in assay [1] (first compound 0.04048 µM), 0.789; in assay [1] (first compound 0.128 µM) it was 0.82; in assay [1] (first compound 1.28 µM) it was 0.686; with Midostaurin + OSI-027 (first compound 0.01 µM), 0.697; in the assay with Midostaurin + OSI-027 (first compound 0.03162 µM), 0.681. For the same cell line, the relative viability was 0.683 with Midostaurin + OSI-027 (first compound 0.1 µM); 0.79 with Midostaurin + OSI-027 (first compound 0.3162 µM); 0.681 in the assay with Midostaurin + Tozasertib (first compound 0.01 µM); 0.769 with Midostaurin + Tozasertib (first compound 0.03162 µM); 0.729 in the assay with Midostaurin + Tozasertib (first compound 0.1 µM); 0.621 with Midostaurin + Tozasertib (first compound 0.3162 µM). The relative viability with Midostaurin + AZD7762 (first compound 0.01 µM) worked out at 0.891; in the assay with Midostaurin + AZD7762 (first compound 0.03162 µM), 0.85; in the assay with Midostaurin + AZD7762 (first compound 0.1 µM), 0.866; with Midostaurin + AZD7762 (first compound 0.3162 µM), 1.14; in assay [2] (first compound 0.0128 µM) it was 0.663; in assay [2] (first compound 0.04048 µM) it was 0.79. Also, the figures for the relative viability in assay [2] (first compound 0.128 µM) and in assay [2] (first compound 1.28 µM) were 0.669 and 0.373, respectively.
On to NCI-H1395, for which the relative viability in assay [1] (first compound 0.0128 µM) came to 0.947; in assay [1] (first compound 0.04048 µM), 1.47; in assay [1] (first compound 0.128 µM), 0.995; in assay [1] (first compound 1.28 µM) it was 0.953; with Midostaurin + OSI-027 (first compound 0.01 µM), 0.591; with Midostaurin + OSI-027 (first compound 0.03162 µM), 0.675. In addition, the relative viability with Midostaurin + OSI-027 (first compound 0.1 µM) was 0.615; with Midostaurin + OSI-027 (first compound 0.3162 µM), 0.763; with Midostaurin + Tozasertib (first compound 0.01 µM) it was 0.726; with Midostaurin + Tozasertib (first compound 0.03162 µM), 0.785; in the assay with Midostaurin + Tozasertib (first compound 0.1 µM), 0.708; with Midostaurin + Tozasertib (first compound 0.3162 µM), 0.769. For the same cell line, the relative viability was 0.407 with Midostaurin + AZD7762 (first compound 0.01 µM); 0.427 with Midostaurin + AZD7762 (first compound 0.03162 µM); 0.408 with Midostaurin + AZD7762 (first compound 0.1 µM); 0.429 in the assay with Midostaurin + AZD7762 (first compound 0.3162 µM); 0.631 in assay [2] (first compound 0.0128 µM); 0.651 in assay [2] (first compound 0.04048 µM). The values for the relative viability in assay [2] (first compound 0.128 µM) and in assay [2] (first compound 1.28 µM) were 0.646 and 0.398, respectively.
Consider NCI-H358, for which the relative viability in assay [1] (first compound 0.0128 µM) was 0.725; in assay [1] (first compound 0.04048 µM) it was 0.747; in assay [1] (first compound 0.128 µM) it was 0.76; in assay [1] (first compound 1.28 µM), 0.555; in the assay with Midostaurin + OSI-027 (first compound 0.01 µM) it was 0.894; with Midostaurin + OSI-027 (first compound 0.03162 µM), 0.73. In addition, the relative viability was 0.788 in the assay with Midostaurin + OSI-027 (first compound 0.1 µM); 0.776 in the assay with Midostaurin + OSI-027 (first compound 0.3162 µM); 0.103 with Midostaurin + Tozasertib (first compound 0.01 µM); 0.101 in the assay with Midostaurin + Tozasertib (first compound 0.03162 µM); 0.0978 with Midostaurin + Tozasertib (first compound 0.1 µM); 0.112 with Midostaurin + Tozasertib (first compound 0.3162 µM). The relative viability in the assay with Midostaurin + AZD7762 (first compound 0.01 µM) was found to be 0.475; with Midostaurin + AZD7762 (first compound 0.03162 µM) it was 0.513; with Midostaurin + AZD7762 (first compound 0.1 µM), 0.571; in the assay with Midostaurin + AZD7762 (first compound 0.3162 µM) it was 0.391; in assay [2] (first compound 0.0128 µM) it was 0.452; in assay [2] (first compound 0.04048 µM), 0.251. Moreover, the relative viability in assay [2] (first compound 0.128 µM) came out at 0.395; in assay [2] (first compound 1.28 µM) it was 0.296.
For NCI-H838, the relative viability came to 1.03 in assay [1] (first compound 0.0128 µM); 1.01 in assay [1] (first compound 0.04048 µM); 1.01 in assay [1] (first compound 0.128 µM); 0.664 in assay [1] (first compound 1.28 µM); 0.481 with Midostaurin + OSI-027 (first compound 0.01 µM); 0.394 with Midostaurin + OSI-027 (first compound 0.03162 µM). For the same cell line, the relative viability was 0.382 with Midostaurin + OSI-027 (first compound 0.1 µM); 0.349 with Midostaurin + OSI-027 (first compound 0.3162 µM); 0.271 in the assay with Midostaurin + Tozasertib (first compound 0.01 µM); 0.283 with Midostaurin + Tozasertib (first compound 0.03162 µM); 0.262 with Midostaurin + Tozasertib (first compound 0.1 µM); 0.286 with Midostaurin + Tozasertib (first compound 0.3162 µM). Besides, the relative viability with Midostaurin + AZD7762 (first compound 0.01 µM) came out at 0.843; with Midostaurin + AZD7762 (first compound 0.03162 µM), 0.892; with Midostaurin + AZD7762 (first compound 0.1 µM) it was 0.848; in the assay with Midostaurin + AZD7762 (first compound 0.3162 µM), 0.865; in assay [2] (first compound 0.0128 µM), 0.343; in assay [2] (first compound 0.04048 µM), 0.303. The relative viability came to 0.243 in assay [2] (first compound 0.128 µM) and 0.261 in assay [2] (first compound 1.28 µM).
For the cell line CAL-12T, the relative viability in assay [1] (first compound 0.0128 µM) amounted to 1.32; in assay [1] (first compound 0.04048 µM) it was 1.25; in assay [1] (first compound 0.128 µM), 1.34; in assay [1] (first compound 1.28 µM), 0.998; in the assay with Midostaurin + OSI-027 (first compound 0.01 µM), 0.779; with Midostaurin + OSI-027 (first compound 0.03162 µM) it was 0.475. Besides, the relative viability came to 0.531 with Midostaurin + OSI-027 (first compound 0.1 µM); 0.307 with Midostaurin + OSI-027 (first compound 0.3162 µM); 0.345 with Midostaurin + Tozasertib (first compound 0.01 µM); 0.27 in the assay with Midostaurin + Tozasertib (first compound 0.03162 µM); 0.266 in the assay with Midostaurin + Tozasertib (first compound 0.1 µM); 0.215 in the assay with Midostaurin + Tozasertib (first compound 0.3162 µM). The relative viability with Midostaurin + AZD7762 (first compound 0.01 µM) was determined as 0.608; with Midostaurin + AZD7762 (first compound 0.03162 µM) it was 0.553; with Midostaurin + AZD7762 (first compound 0.1 µM), 0.469; in the assay with Midostaurin + AZD7762 (first compound 0.3162 µM), 0.452; in assay [2] (first compound 0.0128 µM) it was 0.281; in assay [2] (first compound 0.04048 µM), 0.417. For the same cell line, the relative viability in assay [2] (first compound 0.128 µM) came out at 0.348; in assay [2] (first compound 1.28 µM) it was 0.267.

For the origin of these results see the supplement of paper PMC10307832.
